What all share (type): functional
Test [1] has as its system Mus musculus. As to the kind of experiment: Time of recovery of righting reflux (RRT) in seconds was measured after iv administration of 0.625 mg/kg in mice for the promotional effect on recovery from coma.
The test system of test [2] is Mus musculus. In words: Time of recovery of righting reflux (RRT) in seconds was measured after iv administration of 1.25 mg/kg in mice for the promotional effect on recovery from coma.
In test [3] the test system is Mus musculus. As to the kind of experiment: Time of recovery of righting reflux (RRT) in seconds was measured after iv administration of 2.5 mg/kg in mice for the promotional effect on recovery from coma.
The test system of test [4] is Mus musculus. As to the kind of experiment: Antihypoxic effect by the ratio of survival time (SVT) of test mice to that of control group at a dose of 0.3 mg/kg administered intraperitoneally. To be noted: route intraperitoneal.
Test [5] concerns Mus musculus. In words: Antihypoxic effect by the ratio of survival time (SVT) of test mice to that of control group at a dose of 1 mg/kg administered intraperitoneally. To be noted: route intraperitoneal.
For test [6], the system named is Mus musculus. In words: Antihypoxic effect tested by the ratio of survival time (SVT) of test mice to that of control group, dosed intraperitoneally at 30 mg/kg. Conditions: route intraperitoneal.
Test [7] has as its system Mus musculus. As to the kind of experiment: Antihypoxic effect by the ratio of survival time (SVT) of test mice to that of control group at a dose of 3 mg/kg administered intraperitoneally. Conditions: route intraperitoneal.
In test [8] the test system is Mus musculus. In words: Time of recovery of spontaneous movement (SMT) in seconds was measured after iv administration of 0.625 mg/kg in mice for the promotional effect on recovery from coma.
For test [9], the system named is Mus musculus. In words: Time of recovery of spontaneous movement (SMT) in seconds was measured after iv administration of 1.25 mg/kg in mice for the promotional effect on recovery from coma.
Test [10] deals with Mus musculus. As to the kind of experiment: Time of recovery of spontaneous movement (SMT) in seconds was measured after iv administration of 2.5 mg/kg in mice for the promotional effect on recovery from coma.
For test [11], the system named is Mus musculus. As to the kind of experiment: Compound was tested for the anesthetic effect and the sleeping time (ST) was recorded at a dose of 0.3 mg/kg administered intraperitoneally. Conditions: route intraperitoneal.
In test [12] the test system is Mus musculus. In words: Compound was tested for the anesthetic effect and the sleeping time (ST) was recorded at a dose of 1 mg/kg administered intraperitoneally. Conditions: route intraperitoneal.
For test [13], the system named is Mus musculus. As to the kind of experiment: Compound was tested for the anesthetic effect and the sleeping time (ST) was recorded at a dose of 3 mg/kg administered intraperitoneally. Conditions: route intraperitoneal.

We go through one compound from ChEMBL document CHEMBL1125278, “Novel cerebroprotective agents with central nervous system stimulating activity. 2. Synthesis and pharmacology of the 1-(acylamino)-7-hydroxyindan derivatives” (1991).

Consider `NC(=O)[C@@H]1CCCN1C(=O)[C@H](Cc1c[nH]cn1)NC(=O)[C@@H]1CCC(=O)N1` [PROTIRELIN], for which the RRT is reported as 100.1 s in test [1], 34.1 s in test [2] and 40.8 s in test [3]. Besides, the SVT in [4] came to 83.8%; in [5], 47.1%; in test [6], 43.4%; in test [7], 43.4%. Further, the SMT in [8] is reported as 118.2 s; in test [9], 48.2 s; in [10], 40.9 s. In addition, the values for the ST in test [11], in test [12] and in test [13] were 83.1 s, 70.7 s and 73.2 s, respectively.
